Test results reported in ChEMBL document CHEMBL3785046, “Synthesis, in vitro and in vivo evaluation of novel substituted N-(4-(2-(4-benzylpiperazin-1-yl)ethoxy)phenyl)-N-methyl-quinazolin-4-amines as potent antitumor agents” (Bioorg Med Chem Lett, 2016).
Values belong to the compound of their own block, whether it stands above or below them. The source made the active and inactive calls. The calls are words filed in the database; no cut-off is given here.

Assays:
MCF7 = experiment: Antiproliferative activity against human MCF7 cells after 24 hrs by MTT assay; type: functional, cell-based; settings: MCF7, 24 h
A549 = experiment: Antiproliferative activity against human A549 cells after 24 hrs by MTT assay; type: functional, cell-based; settings: A549, 24 h
HepG2 [1] = experiment: Antiproliferative activity against human HepG2 cells after 24 hrs by MTT assay; type: functional, cell-based; settings: HepG2, 24 h
[2] = Antiproliferative activity against human SW620 cells after 24 hrs by MTT assay; type: functional, cell-based; settings: SW-620, 24 h
HepG2 [3] = experiment: Cell cycle arrest in human HepG2 cells assessed as accumulation at G2/M phase at 200 nM after 24 hrs by propidium iodide staining based flow cytometry (reference value: 19%); type: functional
HepG2 [4] = experiment: Cell cycle arrest in human HepG2 cells assessed as accumulation at G2/M phase at 500 nM after 24 hrs by propidium iodide staining based flow cytometry (reference value: 19%); type: functional
Mus musculus [5] = experiment: Toxicity in nude mouse xenografted with human HepG2 cells assessed as abnormal behavior at 10 mg/kg, iv administered every 2 days for 31 days; type: organism-based; settings: in vivo
HepG2 [6] = experiment: Upregulation of cyclin B1 in human HepG2 cells at 10 to 100 nM after 24 hrs by Western blot analysis; type: functional, cell-based
HepG2 [7] = experiment: Antitumor activity against human HepG2 cells xenografted with nude mouse assessed as tumor weight at 10 mg/kg, iv administered every 2 days for 31 days; type: functional
HepG2 [8] = experiment: Downregulation of Cdk1 in human HepG2 cells at 10 to 100 nM after 24 hrs by Western blot analysis; type: functional, cell-based
Mus musculus [9] = experiment: Toxicity in nude mouse xenografted with human HepG2 cells assessed as weight loss at 10 mg/kg, iv administered every 2 days for 31 days; type: organism-based; settings: in vivo
HepG2 [10] = experiment: Cell cycle arrest in human HepG2 cells assessed as accumulation at S phase at 100 nM after 24 hrs by propidium iodide staining based flow cytometry (reference value: 39%); type: functional
HepG2 [11] = experiment: Cell cycle arrest in human HepG2 cells assessed as accumulation at G1 phase at 100 nM after 24 hrs by propidium iodide staining based flow cytometry (reference value: 42%); type: functional
HepG2 [12] = experiment: Cell cycle arrest in human HepG2 cells assessed as accumulation at G2/M phase after 24 hrs by propidium iodide staining based flow cytometry (reference value: 19%); type: functional
HepG2 [13] = experiment: Cell cycle arrest in human HepG2 cells assessed as accumulation at G2/M phase at 100 nM after 24 hrs by propidium iodide staining based flow cytometry (reference value: 19%); type: functional
HepG2 [14] = experiment: Cell cycle arrest in human HepG2 cells assessed as accumulation at G1 phase at 200 nM after 24 hrs by propidium iodide staining based flow cytometry (reference value: 42%); type: functional
Mus musculus [15] = experiment: Toxicity in nude mouse xenografted with human HepG2 cells assessed as feeding at 10 mg/kg, iv administered every 2 days for 31 days; type: organism-based; settings: in vivo
HepG2 [16] = experiment: Cell cycle arrest in human HepG2 cells assessed as accumulation at S phase at 500 nM after 24 hrs by propidium iodide staining based flow cytometry (reference value: 39%); type: functional
HepG2 [17] = experiment: Cell cycle arrest in human HepG2 cells assessed as accumulation at G1 phase at 500 nM after 24 hrs by propidium iodide staining based flow cytometry (reference value: 42%); type: functional
HepG2 [18] = experiment: Downregulation of Cdc25C in human HepG2 cells at 10 to 100 nM after 24 hrs by Western blot analysis; type: functional, cell-based
HepG2 [19] = experiment: Induction of apoptosis in human HepG2 cells assessed as upregulation of cleaved caspase-3 levels at 0.5 uM after 48 hrs by Western blot analysis; type: functional, cell-based
HepG2 [20] = experiment: Induction of apoptosis in human HepG2 cells assessed as upregulation of cleaved caspase-3 levels after 48 hrs by Western blot analysis; type: functional, cell-based
HepG2 [21] = experiment: Upregulation of phosphorylated histone H3 levels in human HepG2 cells at 10 to 100 nM after 24 hrs by Western blot analysis; type: functional, cell-based
HepG2 [22] = experiment: Antitumor activity against human HepG2 cells xenografted with nude mouse assessed as tumor mass change at 10 mg/kg, iv administered every 2 days for 31 days; type: functional
HepG2 [23] = experiment: Antitumor activity against human HepG2 cells xenografted with nude mouse assessed as tumor volume at 10 mg/kg, iv administered every 2 days for 31 days (reference value: 87.39 +/- 3.529 mm3); type: functional
HepG2 [24] = experiment: Binding affinity to alpha tubulin in human HepG2 cells assessed as disruption of microtubule at 1 uM after 24 hrs by immunofluorescence staining based microscopy; type: cell-based
HepG2 [25] = experiment: Induction of apoptosis in human HepG2 cells assessed as upregulation of cleaved PARP levels at 0.5 uM after 48 hrs by Western blot analysis; type: functional, cell-based
HepG2 [26] = experiment: Cell cycle arrest in human HepG2 cells assessed as accumulation at S phase at 200 nM after 24 hrs by propidium iodide staining based flow cytometry (reference value: 39%); type: functional
HepG2 [27] = experiment: Induction of apoptosis in human HepG2 cells assessed as upregulation of cleaved PARP levels after 48 hrs by Western blot analysis; type: functional, cell-based
HepG2 [28] = experiment: Antitumor activity against human HepG2 cells xenografted with nude mouse assessed as tumor volume at 5 mg/kg, iv administered every 2 days for 31 days (reference value: 103.6 +/- 1.77 mm3); type: functional
HepG2 [29] = experiment: Antitumor activity against human HepG2 cells xenografted with nude mouse assessed as tumor weight at 5 mg/kg, iv administered every 2 days for 31 days; type: functional

SMILES: CN(c1ccc(OCCN2CCN(Cc3ccc(F)c(F)c3)CC2)cc1)c1nc(Cl)nc2ccccc12
- IC50 (MCF7): 2340 nM
- IC50 (A549): 1560 nM
- IC50 (HepG2 [1]): 1310 nM
- IC50 [2]: 892 nM

SMILES: Cc1nc(N(C)c2ccc(OCCN3CCN(Cc4ccccc4Br)CC3)cc2)c2ccccc2n1
- IC50 (MCF7): 2160 nM
- IC50 (A549): > 10000 nM
- IC50 (HepG2 [1]): 441 nM
- IC50 [2]: 1230 nM

SMILES: Cc1nc(N(C)c2ccc(OCCN3CCN(Cc4ccc(C(C)(C)C)cc4)CC3)cc2)c2ccccc2n1
- IC50 (MCF7): > 10000 nM
- IC50 (A549): > 10000 nM
- IC50 (HepG2 [1]): > 10000 nM
- IC50 [2]: > 10000 nM

SMILES: Cc1nc(N(C)c2ccc(OCCN3CCN(Cc4ccccc4Cl)CC3)cc2)c2ccccc2n1
- IC50 (MCF7): 2320 nM
- IC50 (A549): 872 nM
- IC50 (HepG2 [1]): 555 nM
- IC50 [2]: 2920 nM

SMILES: Cc1nc(N(C)c2ccc(OCCN3CCN(Cc4ccc(F)c(F)c4)CC3)cc2)c2ccccc2n1
- IC50 (MCF7): 6120 nM
- IC50 (A549): > 10000 nM
- IC50 (HepG2 [1]): 6580 nM
- IC50 [2]: 3270 nM

SMILES: COc1cccc2c1C(=O)c1c(O)c3c(c(O)c1C2=O)C[C@@](O)(C(=O)CO)C[C@@H]3O[C@H]1C[C@H](N)[C@H](O)[C@H](C)O1.Cl [DOXORUBICIN HYDROCHLORIDE]
- Activity (HepG2 [28]): 238.7 mm3
- Activity (HepG2 [29]): 0.188 g

SMILES: CN(c1ccc(OCCN2CCN(Cc3ccc(C(C)(C)C)cc3)CC2)cc1)c1nc(Cl)nc2ccccc12
- IC50 (MCF7): > 10000 nM
- IC50 (A549): > 10000 nM
- IC50 (HepG2 [1]): > 10000 nM
- IC50 [2]: > 10000 nM

More lines, in order of falling IC50 (MCF7), values ahead:

- IC50 (MCF7): 1980 nM
- IC50 (A549): 6350 nM
- IC50 (HepG2 [1]): 1450 nM
SMILES: CN(c1ccc(OCCN2CCN(Cc3c(F)cccc3F)CC2)cc1)c1nc(Cl)nc2ccccc12
- IC50 [2]: 3210 nM

- IC50 (MCF7): 1230 nM
- IC50 (A549): 371 nM
- IC50 (HepG2 [1]): 650 nM
SMILES: CN(c1ccc(OCCN2CCN(Cc3ccccc3Cl)CC2)cc1)c1nc(Cl)nc2ccccc12
- IC50 [2]: 980 nM

- IC50 (MCF7): 1010 nM
- IC50 (A549): 5740 nM
- IC50 (HepG2 [1]): 890 nM
SMILES: Cc1nc(N(C)c2ccc(OCCN3CCN(Cc4ccccc4C#N)CC3)cc2)c2ccccc2n1
- IC50 [2]: 883 nM

- IC50 (MCF7): 690 nM
- IC50 (A549): 281 nM
- IC50 (HepG2 [1]): 89 nM
SMILES: Cc1nc(N(C)c2ccc(OCCN3CCN(Cc4ccccc4F)CC3)cc2)c2ccccc2n1
- IC50 [2]: 716 nM

- IC50 (MCF7): 99 nM
- IC50 (A549): 147 nM
- IC50 (HepG2 [1]): 29 nM
SMILES: CN(c1ccc(OCCN2CCN(Cc3ccccc3F)CC2)cc1)c1nc(Cl)nc2ccccc12
- Activity (HepG2 [3]): 44%
- Activity (HepG2 [4]): 67%
- Activity (Mus musculus [5]): Non-toxic
- Activity (HepG2 [6]): Active
- Activity (HepG2 [7]): 0.217 g
- Activity (HepG2 [8]): Active
- Activity (Mus musculus [9]): Non-toxic
- Activity (HepG2 [10]): 37%
- Activity (HepG2 [11]): 38%
- Activity (HepG2 [12]): Dose-dependent effect
- Activity (HepG2 [13]): 25%
- Activity (HepG2 [14]): 30%
- Activity (Mus musculus [15]): Non-toxic
- Activity (HepG2 [16]): 23%
- Activity (HepG2 [17]): 10%
- Activity (HepG2 [18]): Active
- Activity (HepG2 [19]): Active
- IC50 [2]: 52 nM
- Activity (HepG2 [20]): Dose-dependent effect
- Activity (HepG2 [21]): Active
- Activity (HepG2 [22]): 78.69%
- Activity (HepG2 [23]): 259.78 mm3
- Activity (HepG2 [24]): Active
- Activity (HepG2 [25]): Active
- Activity (HepG2 [26]): 26%
- Activity (HepG2 [27]): Dose-dependent effect
